The values below come from PMC9408887 (International Journal of Molecular Sciences, 2022).

The target in assay [1] is T1, Bla2 (Bacillus anthracis, UniProt Q93T40). The assay is classed as biochemical.
The target of assay [2] is T1, Bla2. Nature of the assay: biochemical. Format: biochemical.
The subject of assay [3] is Bla2. The following applies: cited from earlier work.

Where two headings read alike, the source gives them in different places.

T1 sequence (Q93T40 1-256): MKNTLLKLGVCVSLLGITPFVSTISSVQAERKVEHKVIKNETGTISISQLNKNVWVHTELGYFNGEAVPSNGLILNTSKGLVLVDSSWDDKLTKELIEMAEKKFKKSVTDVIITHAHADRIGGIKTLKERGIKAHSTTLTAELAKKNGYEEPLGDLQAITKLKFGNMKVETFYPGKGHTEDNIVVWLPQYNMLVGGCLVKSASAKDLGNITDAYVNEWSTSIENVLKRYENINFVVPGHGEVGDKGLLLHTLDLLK

Turning to “3-chloro-N-hydroxy-4-(7-(hydroxyamino)-7-oxoheptyl)benzamide [Compound 4]”, the Ki in assay [1] and in assay [1] (pH 7) was 6.4 ± 1.7 µM in each case. In addition, the mode of inhibition entry in assay [1] is recorded as “competitive inhibition”. In addition, the concentration for half-maximal inhibition (IC50) (usually the concentration needed to halve the response being measured) in assay [2] (pH 7, read-out: IC50) was 20 ± 5 µM.

For `CCCCCCCOc1cccc(C(=O)NO)c1` [3-(heptyloxy)-N-hydroxybenzamide], the inhibition entry in assay [3] was “no inhibition”.

In the case of `O=C(CCCCCOc1cccc(C(=O)NO)c1)NO` [N-hydroxy-3-((6-(hydroxyamino)-6-oxohexyl)oxy)benzamide], the inhibition entry in assay [3] was “significant inhibition”.

Regarding `O=C(CCCCCCC(=O)Nc1ccccc1)NO` [SAHA, suberoylanilide hydroxamic acid, reference compound], the IC50 in assay [2] is above 100 µM.

In the case of “N-hydroxy-4-(7-(hydroxyamino)-7-oxoheptyl)-3-methoxybenzamide [Compound 6]”, in assay [1], the affinity, expressed as Ki, was 4.7 ± 1.4 µM and the mode of inhibition entry is given as “competitive inhibition”. The affinity in assay [1] (pH 7), expressed as Ki, was 4.7 ± 1.4 µM. For the same compound, the IC50 in assay [2] (pH 7, read-out: IC50) amounted to 14.9 ± 9.8 µM.
